Data set [1] in a line: Metabolite profiling of human feces after [14C] cabozantinib (mass balance study). The settings on record: single 175 mg oral dose. The format is in vivo. The protocol: (§1) The objective of this study was to profile and identify metabolites of cabozantinib in human plasma, urine, and feces.
(§2) The plasma, urine, and fecal samples were collected from the 8 subjects for the metabolite profiling.
(§3) All samples were shipped to QPS LLC (Newark, Del.) and stored at −70° C. HPLC/tandem MS coupled with a radio flow-through detector (RFD) was used for metabolite profiling and identification for samples with sufficient levels of radioactivity.
(§4) HPLC fraction collection followed by counting with TopCount NXT™ was used for radioquantitation of plasma samples with sufficient levels of radioactivity. […] HPLC Method 1 was used for the analysis of pooled urine and fecal samples and individual plasma samples from different time points. […] HPLC Method 3 was used for pooled plasma samples.
The supernatants were dried under a nitrogen stream, and the residues were reconstituted in water:ACN:FA (80:20:0.1, v/v/v). The reconstituted samples were centrifuged at 15,000 rpm for 10 min before analysis.
(§5) The system for metabolite profiling and identification (HPLC/MS/RFD) consisted of a HTC PAL autosampler, a Surveyor HPLC pump, a LTQ linear ion trap mass spectrometer, and a β-RAM Model 3 RFD. The data obtained by mass spectrometry and RFD were processed by Xcalibur and Laura Lite 3 software, respectively. The HPLC eluent was split between the RFD and mass spectrometer with a ratio of 3 to 1. The following are the summary of the conditions for HPLC, mass spectrometer, and RFD.
(§6) Mass spectra (MS, MS/MS, and MS/MS/MS) of cabozantinib and its metabolite standards, provided by the Exelixis, Inc., were acquired on an ion trap mass spectrometer. Major fragment patterns were proposed. Identification of these metabolites was confirmed by matching mass spectra (MS and MS/MS) and retention times with authentic reference standards. For other unknown metabolites, molecular ions were searched on LC/MS chromatograms operating in full scan positive as well as negative ionization modes at the same retention times as those found on LC-radio chromatogram. Product ion mass spectra and high resolution mass spectra were then acquired for the corresponding molecular ions. Putative metabolite structures were proposed based on the analysis of their mass fragment patterns.
For the pooled fecal samples, percent of total radioactivity in the pooled sample for each peak was calculated as the percent of total non-parent plus parent in the pooled samples: % of total non-parent plus parent in the pooled samples=(total radioactivity of the peak/total radioactivity of the parent and non-parent peaks)×100

The nature of data set [2]: Metabolite profiling of human plasma after [14C] cabozantinib (mass balance study). The data set is classed as in vivo. The settings on record: single 175 mg oral dose of cabozantinib (L-malate salt) with [14C] cabozantinib, HPLC Method 1. As for the experimental part:
as §1, §2, §3, §4
For the investigation of co-eluting metabolites, nonradiolabeled plasma samples of six subjects were pooled, processed, and analyzed for pre-dose, 1-7, 8-96, and 120-336 hours post-dose. […] [^14C]
Radiolabeled and non-radiolabeled plasma samples were extracted employing the same method, using 1.0-2 mL plasma samples, depending on the volume available and radioactivity level of the samples. The supernatants were evaporated to dryness under a stream of nitrogen in an ambient water bath, and the residues were reconstituted in 0.35-0.5 mL of MeOH:ACN:water (10:20:70, v/v/v). The reconstituted samples were centrifuged at 15,000 rpm for 10 minutes. Aliquots of the supernatants were injected onto the HPLC system for analysis.
as §5
Mass spectra (MS, MS/MS, and MS/MS/MS) of cabozantinib and its metabolite standards, provided by the Exelixis, Inc., were acquired on an ion trap mass spectrometer. Major fragment patterns were proposed. Identification of these metabolites was confirmed by matching mass spectra (MS and MS/MS) and retention times with authentic reference standards. For other unknown metabolites, molecular ions were searched on LC/MS chromatograms operating in full scan positive as well as negative ionization modes at the same retention times as those found on LC-radio chromatogram. […]
For plasma samples, percent of total radioactivity in the sample for each peak at each time point was calculated and converted to ng/mL.

The nature of data set [3]: Metabolite profiling of human urine after [14C] cabozantinib (mass balance study). The data set is classed as in vivo. The settings on record: single 175 mg oral dose; for presence in pooled urine sample: human urine. The protocol:
as §1, §2, §3, §4
The radioactivity in pooled urine and reconstituted solution was counted using LSC, and the reconstitution recovery calculated. […] Each pooled urine sample was lyophilized, the residue was reconstituted in water:ACN:FA (80:20:0.1, v/v/v), and the reconstituted sample was centrifuged at 15,000 rpm for 10 min before analysis.
as §5, §6
For the pooled urine samples, percent of total radioactivity in the pooled sample for each peak was calculated as the % of total non-parent in the pooled samples: % of total non-parent in the pooled samples=(total radioactivity of the peak/total radioactivity of the non-parent peaks)×100

The target in the next data set is Flt-4 (Homo sapiens (Human), UniProt P35916). As to the kind of experiment: Kinase activity, EMD Millipore Kinase Profiler. The format is biochemical. The note with it: for inhibition at 1 µM: read-out: Flt-4 percent inhibition.
Another data set concerns the target KDR (Homo sapiens (Human), UniProt P35968). Kind of data set: Kinase activity, EMD Millipore Kinase Profiler. The format is biochemical. The settings on record: for inhibition at 1 µM: read-out: KDR percent inhibition; for IC50: read-out: KDR Std (IC50).
For another data set, the target named is Flt-1 Alpha (Homo sapiens (Human), UniProt P17948). As to the kind of experiment: Kinase activity, EMD Millipore Kinase Profiler. The note with it: for inhibition at 1 µM: read-out: Flt-1 Alpha percent inhibition.
A further data set has as its target Aurora B MP (Homo sapiens (Human), UniProt Q96GD4). Kind of data set: Kinase activity, EMD Millipore Kinase Profiler. The note with it: for inhibition at 1 µM: read-out: Aurora B MP percent inhibition; for IC50: read-out: Aurora B MP 8pt Std (IC50). The data set is classed as biochemical.
For a further data set, the target named is RET (Homo sapiens (Human), UniProt P07949). Kind of data set: Kinase activity, EMD Millipore Kinase Profiler. The note with it: read-out: RET percent inhibition. The data set is classed as biochemical.
A further data set addresses c-Met (Homo sapiens (Human), UniProt P08581). As to the kind of experiment: Kinase activity, EMD Millipore Kinase Profiler. The data set is classed as biochemical. The note with it: for inhibition at 1 µM: read-out: c-Met percent inhibition; for IC50: read-out: c-Met Std (IC50).
In another data set the target is Flt-3 (Homo sapiens (Human), UniProt P36888). As to the kind of experiment: Kinase activity, EMD Millipore Kinase Profiler. The note with it: for inhibition at 1 µM: read-out: Flt-3 percent inhibition; for IC50: read-out: Flt-3 Std (IC50). The data set is classed as biochemical.

Results on 7 molecules are retold here after patent publication US10273211B2, “Metabolites of N-{4-([6,7-bis(methyloxy)quinolin-4-yl]oxy}phenyl)-N′-(4-fluorophenyl)cyclopropane-1,1-dicarboxamide” (Exelixis, Inc., priority 2013, dated 2019).

As usually defined, the IC50 is the concentration that inhibits the measured activity by half. One may read the inhibition as the change of the read-out against control, counted positive when it falls.

KDR, sequence (P35968 20-1356): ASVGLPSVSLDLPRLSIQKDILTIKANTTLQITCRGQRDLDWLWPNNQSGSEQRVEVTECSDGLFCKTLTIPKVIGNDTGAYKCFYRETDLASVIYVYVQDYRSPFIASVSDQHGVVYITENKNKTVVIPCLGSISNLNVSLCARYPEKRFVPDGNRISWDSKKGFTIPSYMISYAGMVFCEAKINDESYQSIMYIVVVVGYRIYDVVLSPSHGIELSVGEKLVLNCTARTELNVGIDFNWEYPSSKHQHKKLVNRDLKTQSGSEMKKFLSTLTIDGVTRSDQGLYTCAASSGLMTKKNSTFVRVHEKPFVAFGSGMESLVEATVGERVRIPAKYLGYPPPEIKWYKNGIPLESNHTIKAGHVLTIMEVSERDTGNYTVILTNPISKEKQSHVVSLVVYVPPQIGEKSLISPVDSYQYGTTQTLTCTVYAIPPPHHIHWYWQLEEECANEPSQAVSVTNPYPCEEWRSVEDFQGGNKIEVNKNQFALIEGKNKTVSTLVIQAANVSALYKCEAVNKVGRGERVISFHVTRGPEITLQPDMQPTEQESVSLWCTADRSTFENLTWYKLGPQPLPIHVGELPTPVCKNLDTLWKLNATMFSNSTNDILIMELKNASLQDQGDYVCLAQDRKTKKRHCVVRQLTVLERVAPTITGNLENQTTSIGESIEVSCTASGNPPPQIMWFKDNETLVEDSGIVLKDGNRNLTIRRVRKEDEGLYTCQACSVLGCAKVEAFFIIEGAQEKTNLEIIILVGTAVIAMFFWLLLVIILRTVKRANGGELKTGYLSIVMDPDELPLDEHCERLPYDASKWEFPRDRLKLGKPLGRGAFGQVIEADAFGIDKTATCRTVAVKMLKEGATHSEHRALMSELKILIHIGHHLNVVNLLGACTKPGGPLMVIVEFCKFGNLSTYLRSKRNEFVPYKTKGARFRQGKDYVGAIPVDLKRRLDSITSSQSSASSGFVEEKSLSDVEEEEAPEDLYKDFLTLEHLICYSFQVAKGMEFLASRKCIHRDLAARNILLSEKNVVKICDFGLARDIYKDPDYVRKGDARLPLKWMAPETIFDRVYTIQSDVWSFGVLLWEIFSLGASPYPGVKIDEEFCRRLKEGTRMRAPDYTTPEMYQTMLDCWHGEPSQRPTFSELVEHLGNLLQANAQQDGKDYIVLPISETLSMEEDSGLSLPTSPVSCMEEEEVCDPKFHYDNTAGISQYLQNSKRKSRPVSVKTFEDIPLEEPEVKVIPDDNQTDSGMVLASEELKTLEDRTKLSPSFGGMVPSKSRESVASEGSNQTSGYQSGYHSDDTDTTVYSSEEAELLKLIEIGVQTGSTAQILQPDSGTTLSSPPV
Flt-3, sequence (P36888 27-993): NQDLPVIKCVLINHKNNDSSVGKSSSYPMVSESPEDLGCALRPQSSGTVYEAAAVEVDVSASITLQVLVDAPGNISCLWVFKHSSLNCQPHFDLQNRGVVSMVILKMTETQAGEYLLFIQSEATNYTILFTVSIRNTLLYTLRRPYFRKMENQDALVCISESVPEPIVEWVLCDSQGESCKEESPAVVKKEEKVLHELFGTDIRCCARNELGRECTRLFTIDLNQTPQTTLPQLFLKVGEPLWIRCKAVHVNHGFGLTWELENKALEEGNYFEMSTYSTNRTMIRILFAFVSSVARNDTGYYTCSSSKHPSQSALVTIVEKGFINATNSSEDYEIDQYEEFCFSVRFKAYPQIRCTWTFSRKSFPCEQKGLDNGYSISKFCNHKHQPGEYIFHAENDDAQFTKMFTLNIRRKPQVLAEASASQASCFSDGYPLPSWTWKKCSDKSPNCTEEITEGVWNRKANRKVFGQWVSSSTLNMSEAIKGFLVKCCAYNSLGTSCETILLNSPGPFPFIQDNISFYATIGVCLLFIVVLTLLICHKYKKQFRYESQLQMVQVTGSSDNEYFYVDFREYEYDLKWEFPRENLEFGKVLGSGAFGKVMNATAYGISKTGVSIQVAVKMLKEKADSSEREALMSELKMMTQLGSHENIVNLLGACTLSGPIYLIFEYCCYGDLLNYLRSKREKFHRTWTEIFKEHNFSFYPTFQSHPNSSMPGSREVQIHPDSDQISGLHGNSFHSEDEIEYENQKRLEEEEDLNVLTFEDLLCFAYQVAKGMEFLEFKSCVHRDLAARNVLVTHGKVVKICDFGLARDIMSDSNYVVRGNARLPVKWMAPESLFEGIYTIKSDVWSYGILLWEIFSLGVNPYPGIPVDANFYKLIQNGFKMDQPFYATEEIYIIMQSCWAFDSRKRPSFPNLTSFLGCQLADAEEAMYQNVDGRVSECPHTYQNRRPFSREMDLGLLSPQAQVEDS
Flt-4, sequence (P35916 25-1363): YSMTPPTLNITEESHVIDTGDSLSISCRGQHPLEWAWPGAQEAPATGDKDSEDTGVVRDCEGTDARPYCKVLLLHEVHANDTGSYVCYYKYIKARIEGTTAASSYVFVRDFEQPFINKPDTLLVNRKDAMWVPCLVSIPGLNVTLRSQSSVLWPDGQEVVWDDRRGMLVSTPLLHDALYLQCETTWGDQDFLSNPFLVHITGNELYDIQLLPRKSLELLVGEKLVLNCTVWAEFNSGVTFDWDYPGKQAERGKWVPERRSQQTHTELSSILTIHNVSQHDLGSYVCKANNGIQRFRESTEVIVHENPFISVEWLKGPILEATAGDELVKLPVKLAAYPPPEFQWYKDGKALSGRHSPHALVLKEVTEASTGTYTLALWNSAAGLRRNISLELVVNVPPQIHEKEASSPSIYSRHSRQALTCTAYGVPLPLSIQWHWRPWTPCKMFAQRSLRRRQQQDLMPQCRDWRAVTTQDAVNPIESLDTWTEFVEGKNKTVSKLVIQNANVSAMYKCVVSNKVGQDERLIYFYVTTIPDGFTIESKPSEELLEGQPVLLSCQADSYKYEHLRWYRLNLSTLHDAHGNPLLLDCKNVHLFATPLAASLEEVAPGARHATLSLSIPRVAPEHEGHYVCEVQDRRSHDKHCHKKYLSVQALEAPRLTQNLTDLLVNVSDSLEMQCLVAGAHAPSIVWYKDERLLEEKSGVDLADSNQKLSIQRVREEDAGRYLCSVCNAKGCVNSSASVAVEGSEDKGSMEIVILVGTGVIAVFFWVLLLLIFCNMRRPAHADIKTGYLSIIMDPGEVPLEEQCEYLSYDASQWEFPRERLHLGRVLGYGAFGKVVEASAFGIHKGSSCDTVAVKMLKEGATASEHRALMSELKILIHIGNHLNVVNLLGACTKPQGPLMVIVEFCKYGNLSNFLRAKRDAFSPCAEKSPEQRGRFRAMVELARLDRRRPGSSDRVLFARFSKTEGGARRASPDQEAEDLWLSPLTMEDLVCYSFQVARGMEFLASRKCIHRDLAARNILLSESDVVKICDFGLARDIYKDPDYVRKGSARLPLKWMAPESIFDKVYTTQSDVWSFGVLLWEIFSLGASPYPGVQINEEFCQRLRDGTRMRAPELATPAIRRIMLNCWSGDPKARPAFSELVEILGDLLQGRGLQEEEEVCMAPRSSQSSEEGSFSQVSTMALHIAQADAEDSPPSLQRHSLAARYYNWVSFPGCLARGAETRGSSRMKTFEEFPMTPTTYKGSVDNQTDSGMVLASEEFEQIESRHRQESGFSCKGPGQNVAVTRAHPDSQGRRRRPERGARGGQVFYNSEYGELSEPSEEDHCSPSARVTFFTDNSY
c-Met, sequence (P08581 25-1390): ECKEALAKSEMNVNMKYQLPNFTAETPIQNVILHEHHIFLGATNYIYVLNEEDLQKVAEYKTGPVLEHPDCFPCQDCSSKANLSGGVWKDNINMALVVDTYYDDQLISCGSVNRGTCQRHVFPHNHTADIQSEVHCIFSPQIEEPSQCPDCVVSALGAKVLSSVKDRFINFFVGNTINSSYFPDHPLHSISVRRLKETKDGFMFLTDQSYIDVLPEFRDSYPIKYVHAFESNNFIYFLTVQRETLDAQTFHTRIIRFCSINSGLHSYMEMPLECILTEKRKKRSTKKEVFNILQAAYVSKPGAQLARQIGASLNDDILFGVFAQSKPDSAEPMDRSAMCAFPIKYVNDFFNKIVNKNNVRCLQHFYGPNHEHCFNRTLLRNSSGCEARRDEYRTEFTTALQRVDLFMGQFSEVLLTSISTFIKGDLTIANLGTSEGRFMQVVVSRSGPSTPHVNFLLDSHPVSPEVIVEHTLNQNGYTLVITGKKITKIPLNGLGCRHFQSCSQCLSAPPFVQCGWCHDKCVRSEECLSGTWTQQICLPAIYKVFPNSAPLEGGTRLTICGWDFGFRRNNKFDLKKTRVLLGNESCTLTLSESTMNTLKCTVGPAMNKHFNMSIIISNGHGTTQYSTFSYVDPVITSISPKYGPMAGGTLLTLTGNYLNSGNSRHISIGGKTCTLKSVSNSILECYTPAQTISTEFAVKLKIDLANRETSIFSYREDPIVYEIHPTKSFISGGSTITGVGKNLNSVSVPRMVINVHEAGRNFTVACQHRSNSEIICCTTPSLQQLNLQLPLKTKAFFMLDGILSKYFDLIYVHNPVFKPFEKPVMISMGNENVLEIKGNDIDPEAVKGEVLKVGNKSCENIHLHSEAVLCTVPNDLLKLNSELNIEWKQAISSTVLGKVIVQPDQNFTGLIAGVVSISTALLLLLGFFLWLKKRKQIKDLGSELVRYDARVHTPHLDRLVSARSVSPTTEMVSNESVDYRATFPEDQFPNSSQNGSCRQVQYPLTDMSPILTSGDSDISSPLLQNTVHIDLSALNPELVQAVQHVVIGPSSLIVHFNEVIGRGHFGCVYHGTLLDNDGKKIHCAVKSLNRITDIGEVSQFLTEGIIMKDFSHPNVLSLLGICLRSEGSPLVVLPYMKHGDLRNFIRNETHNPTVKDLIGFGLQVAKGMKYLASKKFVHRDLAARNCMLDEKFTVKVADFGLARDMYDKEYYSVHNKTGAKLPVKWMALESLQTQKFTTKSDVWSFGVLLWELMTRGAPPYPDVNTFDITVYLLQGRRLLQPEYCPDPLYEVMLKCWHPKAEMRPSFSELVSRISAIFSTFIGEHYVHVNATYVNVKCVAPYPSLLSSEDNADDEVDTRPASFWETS

With `COc1cc2nccc(Oc3ccc(NC(=O)C4(C(=O)Nc5ccc(F)cc5)CC4)cc3)c2cc1OC` [Cabozantinib, N-(4-{[6,7-bis(methyloxy)quinolin-4-yl]oxy}phenyl)-N′-(4-fluorophenyl)cyclopropane-1,1-dicarboxamide, reference compound], the “presence in pooled fecal sample” value in data set [1] (0-72 hours post dose) is listed as “observed”. The “peak on plasma radio-chromatograms” value in data set [2] is reported as “major peaks”. Besides, the “presence in urine samples” value in data set [3] (human urine samples, all intervals) is given as “not observed”. Besides, at Flt-4 (read-out: Flt-4 Std (IC50)), the IC50 is under 50 nM.

`COc1cc2nccc(Oc3ccc(NC(=O)C4(C(=O)O)CC4)cc3)c2cc1OS(=O)(=O)O` [Compound 2a]: the inhibition at 1 µM at KDR was at most 25%; at Flt-1 Alpha it was at most 25%; at Aurora B MP, at most 25%; at RET, at most 25%; on Flt-4, at least 25%; on c-Met, at least 50%. For the same molecule, the inhibition at 1 µM on Flt-3 was at most 25%.

Regarding `COc1cc2nccc(Oc3ccc(NC(=O)C4(C(=O)O)CC4)cc3)c2cc1OC` [Compound 7, 1-[4-(6,7-Dimethoxy-quinolin-4-yloxy)-phenylcarbamoyl]-cyclopropane carboxylic acid], the “presence in pooled fecal sample” value in data set [1] (0-72 hours post dose) and in data set [1] (144-192 hours post dose) was “observed” each time. In addition, the IC50 on KDR was over 5000 nM; on Aurora B MP it was 500 to 5000 nM; on c-Met, over 5000 nM; on Flt-3, 500 to 5000 nM. Besides, the “peak on plasma radio-chromatograms” value in data set [2] is reported as “one of the minor peaks”. Besides, the “presence in pooled urine sample” value in data set [3] (0-72 hours post dose) and in [3] (144-192 hours post dose) was “observed” throughout.

Take `COc1cc2nccc(Oc3ccc(NC(=O)C4(C(=O)Nc5ccc(F)cc5OS(=O)(=O)O)CC4)cc3)c2cc1OC` [Compound 9]: the inhibition at 1 µM was at most 25% at KDR; at least 50% on Flt-1 Alpha; at least 75% on Aurora B MP; at least 75% at RET; at least 75% at Flt-4; at least 75% at c-Met. Moreover, the inhibition at 1 µM on Flt-3 is at least 50%. In addition, in data set [2], the “peak on plasma radio-chromatograms” value is reported as “major peaks”.

As to `COc1cc2nccc(Oc3ccc(NC(=O)C4(C(=O)Nc5ccc(F)c(O)c5)CC4)cc3)c2cc1OC` [Compound 13], the IC50 at KDR was under 50 nM; on Flt-1 Alpha, 500 to 5000 nM; on Aurora B MP it was 50 to 500 nM; at c-Met it was under 50 nM; at Flt-3, under 50 nM.

With `COc1cc2nccc(Oc3ccc(NC(=O)C4(C(=O)Nc5ccc(F)cc5O)CC4)cc3)c2cc1OC` [Compound 16], the “presence in pooled fecal sample” value in [1] (0-72 hours post dose) and in data set [1] (144-192 hours post dose) was “observed” each time. The IC50 on KDR is under 50 nM; at Flt-1 Alpha, 500 to 5000 nM; at Aurora B MP it was 50 to 500 nM; on c-Met, under 50 nM; at Flt-3 it was under 50 nM.

With `COc1cc2c(Oc3ccc(NC(=O)C4(C(=O)Nc5ccc(F)cc5)CC4)cc3)cc[n+]([O-])c2cc1OC` [Compound 19], the “peak on plasma radio-chromatograms” value in data set [2] is on record as “major peaks”. Moreover, the “presence in pooled urine sample” value in data set [3] (0-72 hours post dose) was “observed”.
